{"source": "patent US4873233A", "about": "“17-Substituted androsta-1,4-dien-3-one derivatives” (Farmitalia Carlo Erba S.p.a., priority 1987, dated 1989)", "target": "T1, androgen receptor (Rattus norvegicus, UniProt P15207)", "T1 sequence (P15207 1-902)": "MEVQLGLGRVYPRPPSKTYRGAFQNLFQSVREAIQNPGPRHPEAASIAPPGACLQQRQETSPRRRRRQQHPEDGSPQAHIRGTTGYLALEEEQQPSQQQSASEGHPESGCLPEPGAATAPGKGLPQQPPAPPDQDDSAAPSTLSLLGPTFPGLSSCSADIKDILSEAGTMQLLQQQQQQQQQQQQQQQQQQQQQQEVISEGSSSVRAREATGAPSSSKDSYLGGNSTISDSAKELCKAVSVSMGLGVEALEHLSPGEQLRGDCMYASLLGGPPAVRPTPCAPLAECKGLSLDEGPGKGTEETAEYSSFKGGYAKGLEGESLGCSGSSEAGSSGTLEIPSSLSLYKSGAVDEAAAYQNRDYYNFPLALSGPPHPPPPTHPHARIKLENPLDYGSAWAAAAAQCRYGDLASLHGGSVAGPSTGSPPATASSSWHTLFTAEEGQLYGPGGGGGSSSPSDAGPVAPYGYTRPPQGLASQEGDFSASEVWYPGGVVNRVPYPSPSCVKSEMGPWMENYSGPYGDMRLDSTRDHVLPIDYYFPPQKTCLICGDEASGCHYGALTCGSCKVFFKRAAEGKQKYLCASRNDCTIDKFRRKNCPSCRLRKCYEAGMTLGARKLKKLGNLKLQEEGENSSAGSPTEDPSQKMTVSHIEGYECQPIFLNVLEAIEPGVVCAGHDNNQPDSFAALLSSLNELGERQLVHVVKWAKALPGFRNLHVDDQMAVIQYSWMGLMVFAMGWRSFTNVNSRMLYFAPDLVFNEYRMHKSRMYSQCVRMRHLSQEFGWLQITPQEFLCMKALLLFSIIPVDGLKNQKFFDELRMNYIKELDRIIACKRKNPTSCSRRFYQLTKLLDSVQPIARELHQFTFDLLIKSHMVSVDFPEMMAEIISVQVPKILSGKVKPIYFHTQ", "experiment": "Binding affinity to cytoplasmic androgen (rat prostate) receptors, dextran-coated charcoal adsorption technique", "method": "Binding affinity to cytoplasmic androgen (rat prostate) receptors was determined by standard dextran-coated charcoal adsorption technique (Raynaud J. P. et al. J. Steroid. Biochem. 6, 615-622, 1975).\nProstatic tissue, obtained from both adrenalectomized and orchidectomized Sprague-Dawley rats, was homogenized (1:10 weight:vol ratio) in 10 mM Tris-HCl PH 7.4, containing 1.5 nM EDTA and 1 mM dithiothreitol, in motor driven tissue grinders. The homogenate was centrifuged at 105,000×g for 1 h at 2° C. Aliquots of cytosol (0.2 ml) were incubated for 2 h at 0° C. with various concentrations of the test compounds, in duplicate, and a fixed amount of [^3 H]-5α-dihydrotestosterone (DHT, final concentration 1 nM in 0.4 ml of incubation volume). Then, free radioactivity was adsorbed on 0.2 ml of dextran-coated charcoal suspension and after centrifugation at 1,500×g for 10 min, the bound radioactivity in the supernatant was determined by liquid scintillation in RIaluma.", "data": [{"compound": "C=C1C[C@H]2[C@@H]3CC[C@H](O)[C@@]3(C)CC[C@@H]2[C@@]2(C)C=CC(=O)C=C12", "note": "[6-methylenandrosta-1,4-diene-17β-ol-3-one]", "values": [{"measurement": "affinity to the androgen receptor (in words)", "result": "very high affinity"}, {"measurement": "times more potent than the correspondent 17-cheto-derivative (androgen receptor affinity)", "setting": "versus 6-methylenandrosta-1,4-diene-3,17-dione", "result": 76, "unit": "times"}]}]}
